# Measurements taken from publication PMC9818267, “Brain Natriuretic Peptide Protects Cardiomyocytes from Apoptosis and Stimulates Their Cell Cycle Re-Entry in Mouse Infarcted Hearts” (Cells, 2022).
# No end group written: not given here.
# How the values were obtained:
# phospholamban (PLB) = experiment: Western blot pPLB/PLB in CMs isolated from BNP-injected hearts; format: in vivo, mouse; conditions: vs saline
# Description: BNP was injected into infarcted adults, and unmanipulated neonatal and adult mice. Directly after surgery, NaCl (saline) or BNP (1.3 µg/20 g in 20 µL) was injected into the left ventricle cavity. At 24 h after MI, mice were intraperitoneal (ip) injected with BNP (2 µg/20 g mice) or saline every 2 days. C57BL/6 mice were sacrificed 1- and 14 days post-MI and Myh6 MerCreMer mice were sacrificed 14 days post-MI (Figure 1A). Neonatal C57BL/6 mice (3 days after birth) were injected ip with NaCl or BNP every two days (1 µg/2 g; Bachem; synthetic mouse BNP (1–45) peptide (catalog number H-7558)). Mice were sacrificed 11 days after birth (Figure 1B). Eight week old C57 BL/6 mice or Myh6 MerCreMer unmanipulated mice were injected ip with BNP (2 µg/20 g mice) or NaCl every two days (Figure 1C). Two weeks after the first injection, mice were sacrificed. To assess for the implication of the ERK signaling pathway in the BNP effect on CMs, PD0325901 (60 µg/20 g mice in 80 µL) was administered by gavage in adult unmanipulated mice 1 h before BNP injection (2 µg/20 g mice).
# (§1) CM isolations were performed thanks to the Langendorff-Free method. […] Thereafter, the heart was removed from the chest and the left ventricle was perfused with enzymatic solution containing collagenase II (120 U/mL), collagenase IV (120 U/mL) (Worthington, Biochemical Corporation, USA) and protease XIV (0.05 mg/mL or 0.175 U/mL) (Sigma-Aldrich, Merck, Darmstadt, Germany). In each experiment, a full digestion of the heart was obtained. After digestion, cardiac cells were dissociated by gentle pipetting, filtered and collected after 25 min sedimentation. For infarcted hearts, the tissue was separated into the three zones (ZI, BZ and RZ). The three different areas were weighted before gentle pipetting.
# (§2) Total proteins were extracted from CMs isolated from adult infarcted and unmanipulated neonatal and adult hearts. Proteins were transferred to nitrocellulose membranes (Biorad) before incubation with primary antibodies overnight at 4 °C. Secondary antibodies were added 1 h at RT in the dark (Supplementary File S1). The signal was detected and quantified with the Odyssey infrared imaging system (LI-COR. Biosciences, Bad Homburg, Germany). All results were normalized to the tubulin protein level or to the total protein level thanks to stainings with the Revert 700 Total protein Stain (LI-COR).
# [1] = Infarct size by echocardiography; format: in vivo, mouse; conditions: two weeks after surgery
# Description: To assess for the reproducibility of LAD occlusion, we measured the infarct size by echocardiography analysis (% of the MI length long axis). Two weeks after surgery, the infarct area represented 37 ± 2.5% of the LV in saline injected mice (n = 10) and 31.5 ± 4% in BNP-treated mice (n = 7).
# cardiomyocytes (CMs) = experiment: Immunostaining of cell cycle markers (BrdU, Ki67, pH3, Aurkb) in CMs of BNP-treated hearts; format: in vivo, mouse
# Description: For all experiments with adult mice, BrdU (1 mg/mL) was added into the drinking water during the entire period of the experiments. BrdU (40 µL/mice, 10 mg/mL) was ip injected in newborn mice on day 5 and 9 after birth.
# (§3) Cells or OCT heart sections (5 µm-thick cryosections) were washed in PBS 1X and fixed in paraformaldehyde (2%) or formol (4%) for 10 min at RT. After 10 min of permeabilization (0.3% Triton x-100 in PBS) and one hour of blocking with normal serum, sections were probed with primary antibodies overnight at 4 °C (Supplementary File S1). The second day, the secondary antibody was added on cells or heart sections. Slides were mounted with Dabco (Sigma) and pictures were captured with Nikon Eclipse TS100 or 90i microscope. Images were processed with Adobe Photoshop CC2015.
# For the detection of BrdU incorporation, heart slides were fixed 10 min in 2% PFA, DNA was denatured 1 h at RT in HCl 2N before neutralization in Na Borate 0.1 M pH = 8.5 during 2 × 5 min. Then, sections were probed with primary antibodies overnight at 4 °C (Supplementary File S1).
# caspase 3+ CMs = experiment: Immunostaining of caspase 3+ CMs in infarcted area; format: in vivo, mouse; conditions: infarcted area 1 day after MI, BNP vs saline
# Description: as §3
# Akt = experiment: Western blot pAkt/Akt in adult CMs stimulated in vitro; format: cell-based, mouse; conditions: adult CMs stimulated with BNP for 2–3 h in vitro, vs untreated
# Description: as §1, §2
# ERK = experiment: Western blot pERK/ERK in adult CMs stimulated in vitro; format: cell-based, mouse; conditions: adult CMs stimulated with BNP for 2–3 h in vitro, vs untreated
# Description: as §1, §2
# [2] = infarct and border area 10 days after MI, BNP vs saline
# [3] = neonatal BNP-treated hearts vs saline
# [4] = unmanipulated adult hearts, BNP vs saline
substance,measurement,setting,value
"Brain Natriuretic Peptide (SQGSTLRVQQRPQNSKVTHISSCFGHKIDRIGSVSRLGCNALKLL; not fully specified; ends and bridges not checked; UniProt P40753 77-121, looked up) [BNP, synthetic mouse BNP (1–45) peptide (Bachem, catalog number H-7558)]",pPLB/PLB ratio change,phospholamban (PLB); CMs from remote zone (RZ) of infarcted hearts after BNP injections,−32%
same,pPLB/PLB ratio increase,phospholamban (PLB); CMs from unmanipulated adult hearts after BNP injections (2–3 h before CM isolation),1.5 ×
same,pPLB/PLB ratio increase,phospholamban (PLB); CMs from unmanipulated neonatal hearts after BNP injections,3.5 ×
same,pPLB/PLB ratio increase,phospholamban (PLB); CMs isolated from border zone (BZ) of infarcted hearts after BNP injections,2.7 ×
same,reduction of infarct size,[1]; BNP vs saline,15%
same,infarct area as % of the LV (% of the MI length long axis),"[1]; BNP-treated n = 7, saline 37 ± 2.5% (n = 10)",31.5 ± 4%
same,increase of percentage of BrdU+ GFP+ α actinin+ cells among GFP+ α actinin+ cells,"cardiomyocytes (CMs); ZI+BZ of infarcted Myh6 MerCreMer mice injected with tamoxifen, BNP vs saline",20%
same,increase of percentage of CMs expressing Aurkb,cardiomyocytes (CMs); [2],2.8 ×
same,increase of percentage of CMs expressing Ki67,cardiomyocytes (CMs); [2],50%
same,increase of percentage of CMs expressing pH3,cardiomyocytes (CMs); [2],40%
same,increase of percentage of CMs incorporating BrdU,cardiomyocytes (CMs); [2],70%
same,number of Aurkb+ CMs undergoing cytokinesis or binucleation,"cardiomyocytes (CMs); infarcted hearts, among Aurkb+ CMs, BNP vs saline",slightly increased
same,increase of number of Aurkb+ CMs undergoing cytokinesis or binucleation,cardiomyocytes (CMs); [3],1.4 fold
same,increase of number of CMs expressing Aurkb,cardiomyocytes (CMs); [3],47.5%
same,increase of number of CMs expressing Ki67,cardiomyocytes (CMs); [3],15%
same,increase of number of CMs expressing pH3,cardiomyocytes (CMs); [3],41%
same,increase of number of CMs incorporating BrdU,cardiomyocytes (CMs); [3],23%
same,increase of percentage of CMs expressing pH3,cardiomyocytes (CMs); [4],94%
same,increase of percentage of CMs incorporating BrdU,cardiomyocytes (CMs); [4],67%
same,number of caspase 3+ CMs change,caspase 3+ CMs,−13%
same,pAkt/Akt ratio increase,Akt,2.5 ×
same,pERK/ERK ratio increase,ERK,1.9 ×
